Results on 25 molecules are retold here after patent publication US11560373B2, “Compounds and their use as PDE4 activators” (Mironid Limited, priority 2018, dated 2023).

The target of the experiment is T1, PDE4D5 (Homo sapiens, UniProt Q08499).
T1 construct: stably expressed the full-length human PDE4D5, PDE4B1 and PDE4A4 long isoforms; made in house
The experiment in a line: PDE assay, [3H]cAMP hydrolysis by HEK-PDE4D5 cell lysate cytosol fraction. It counts as biochemical. To be noted: for activation at 30 µM: mean % increase in counts over basal activity. The protocol:
HEK 293 cells were transfected with pDEST™ PDE4 expression vectors using Lipofectamine LTX/Plus reagent (Invitrogen) as outlined by the manufacturer and clonal isolates expanded to obtain cell lines that stably expressed the full-length human PDE4D5, PDE4B1 and PDE4A4 long isoforms and the full length human PDE4B2 short isoform. These were called the HEK-PDE4D5, HEK-PDE4B1, HEK-PDE4A4 and HEK-PDE4B2 cell lines, respectively.
HEK-PDE4D5 cells were seeded out in 100 mm plates and incubated at 37° C. in an atmosphere of 5% CO2, 95% air. Cell lysates were prepared using KHEM buffer [50 mM KCl, 10 mM EGTA, 50 mM HEPES (pH 7.2), 1.92 mM MgCl2].
To prepare the cell lysates, the 100 mm plates containing the cells were placed on ice and washed with ice-cold PBS (phosphate buffered saline, pH 7.4). KHEM buffer (500 μl) was added to the cells. Cells were then scraped off the plate and triturated using a needle (BD Microlance™ 0.8, 40 mm). The lysed cells were then centrifuged at 2000 rpm for 10 minutes to remove cell debris and the supernatant (cell lysate containing recombinant PDE4D5) was transferred to a fresh tube and kept on ice.
The cell lysate containing recombinant PDE4D5 was transferred into a centrifuge tube and placed into an ultracentrifuge (BECKMAN COULTER) and spun at high speed (100,000 g) for 30 minutes at 4° C. The cytosol fraction was then collected and its protein amount determined using a BCA protein assay.
PDE assays were performed in thin walled V-bottomed 96-well plates. The assays were performed at a final concentration of 10 mM Tris/5 mM MgCl2 plus PDE4D5 cell lysate cytosol fraction, containing over-expressed PDE4D5, with and without test compound. The lysate/compound mix were incubated together for 15 min at room temperature on an orbital shaker prior to addition of [^3H] cAMP (final concentration 1 μM [^3H] cAMP; Perkin Elmer) to a final volume of 50 μl per reaction. The reactions were then incubated for 10 minutes at 30° C., terminated by heating for 2 min at 95° C. and allowed to cool. Snake venom (12.5 μl of 1 mg/ml; Crotalus atrox, Sigma) was then added and the plates were agitated and incubated for a further 15 minutes at 30° C. Dowex ion exchange resin (Sigma, chloride form, 200-400 mesh; 200 μl; prepared as a 1:1 Dowex: water stock, thoroughly re-suspended and diluted 2:1 with ethanol) was then added to each well and the plates incubated for 15 min at room temperature on an orbital shaker ensuring sufficient agitation for resin suspension (550 RPM). The reaction mixture was then transferred to a 96 well filter plate (Millipore; […] pore size) and filtered into a receiving 96-well plate to remove the dowex suspension. 30 μL of the filtered solution was then transferred to the wells of an Opti-plate (Perkin Elmer) 96 well assay plate and 120 μl of Microscint 40 scintillation fluid was added. The plate was then placed on an orbital shaker for 10 min at high speed (900 RPM) to mix the sample with scintillation fluid prior to quantitation using a plate based scintillation counter (Top-Count).
The % increase in counts in the presence of test compound at a particular concentration indicates the % increase in enzyme activity at that concentration.

SMILES strings stand for the structures.

T1 sequence (Q08499 1-745 isoform Q08499-6): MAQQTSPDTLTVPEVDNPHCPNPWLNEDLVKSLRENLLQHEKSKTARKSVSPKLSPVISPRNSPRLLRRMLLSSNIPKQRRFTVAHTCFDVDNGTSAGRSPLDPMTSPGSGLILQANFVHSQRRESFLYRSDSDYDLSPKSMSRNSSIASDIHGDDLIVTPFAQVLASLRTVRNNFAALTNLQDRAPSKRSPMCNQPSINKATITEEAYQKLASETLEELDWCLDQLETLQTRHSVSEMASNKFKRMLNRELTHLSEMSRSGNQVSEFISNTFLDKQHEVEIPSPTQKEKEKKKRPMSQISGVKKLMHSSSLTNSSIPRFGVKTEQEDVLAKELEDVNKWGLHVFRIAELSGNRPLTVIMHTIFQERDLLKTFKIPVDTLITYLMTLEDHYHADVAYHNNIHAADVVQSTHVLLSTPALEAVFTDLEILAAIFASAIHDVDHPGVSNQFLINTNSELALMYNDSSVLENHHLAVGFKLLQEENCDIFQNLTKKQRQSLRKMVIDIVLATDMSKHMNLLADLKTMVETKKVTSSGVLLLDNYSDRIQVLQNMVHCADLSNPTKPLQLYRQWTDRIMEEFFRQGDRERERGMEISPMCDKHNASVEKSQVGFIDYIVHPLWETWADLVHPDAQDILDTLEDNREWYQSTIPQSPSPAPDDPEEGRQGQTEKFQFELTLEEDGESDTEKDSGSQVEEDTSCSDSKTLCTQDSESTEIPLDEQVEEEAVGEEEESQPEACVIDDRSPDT

Molecule `CCn1nc(-c2ccc(Cl)c(F)c2)nc1CC(=O)NCc1cc(C)cc(C)c1` [Example 12, 2-[3-(4-Chloro-3-fluorophenyl)-1-ethyl-1H-1,2,4-triazol-5-yl]-N-[(3,5-dimethylphenyl)methyl]acetamide] registered an activation at 30 µM of 71.6%.
On the same count and under the same terms, with `CCn1nc(-c2ccc(Cl)c(F)c2)nc1CC(=O)NCc1ccc(OC)cc1` [Example 16, 2-[3-(4-Chloro-3-fluorophenyl)-1-ethyl-1H-1,2,4-triazol-5-yl]-N-[(4-methoxyphenyl)methyl]acetamide] the figure was 44.7%.
In turn, `CCn1nc(-c2ccc(Cl)c(OC(C)C)c2)nc1CC(=O)NCc1cc(C)cc(C)n1` [Example 82, 2-[3-(4-Chloro-3-isopropyloxyphenyl)-1-ethyl-1H-1,2,4-triazol-5-yl]-N-[(4,6-dimethylpyridin-2-yl)methyl]acetamide] came in with an activation at 30 µM of 34.3%.
The molecule `CCn1nc(-c2ccc(Cl)c(OC(C)C)c2)nc1CC(=O)NCc1ccc2[nH]ncc2c1` [Example 38, 2-[3-(4-Chloro-3-isopropyloxyphenyl)-1-ethyl-1H-1,2,4-triazol-5-yl]-N-[(1H-indazol-5-yl)methyl]acetamide] had an activation at 30 µM of 81.6%.
On the same count and under the same terms, with `CCn1nc(-c2ccc(Cl)c(F)c2)nc1C(F)(F)C(=O)NCc1cc(Cl)cc(Cl)c1` [Example 50, 2-[3-(4-Chloro-3-fluorophenyl)-1-ethyl-1H-1,2,4-triazol-5-yl]-N-[(3,5-dichlorophenyl)methyl]-2,2-difluoroacetamide] the figure was 36.7%; with `Cn1nc(-c2ccc(Cl)c(F)c2)nc1CC(=O)NCc1cc(Cl)cc(Cl)c1` [Example 18, 2-[3-(4-Chloro-3-fluorophenyl)-1-methyl-1H-1,2,4-triazol-5-yl]-N-[(3,5-dichlorophenyl)methyl]acetamide], 77.8%.
In turn, `CCn1nc(-c2ccc(Cl)c(F)c2)nc1CC(=O)N[C@@H]1c2ccccc2C[C@@H]1O` [Example 62, 2-[3-(4-Chloro-3-fluorophenyl)-1-ethyl-1H-1,2,4-triazol-5-yl]-N-[(1R,2S)-2-hydroxy-2,3-dihydro-1H-inden-1-yl]acetamide] yielded an activation at 30 µM of 49.8%.
On the same count and under the same terms, with `CCn1nc(-c2ccc(Cl)c(F)c2)nc1CC(=O)N[C@H]1CCOc2ccccc21` [Example 74, 2-[3-(4-Chloro-3-fluorophenyl)-1-ethyl-1H-1,2,4-triazol-5-yl]-N-[(4S)-3,4-dihydro-2H-1-benzopyran-4-yl]acetamide] the figure was 55.3%; with `CCn1nc(-c2ccc(Cl)c(F)c2)nc1CC(=O)NCc1cccc2cn[nH]c12` [Example 4, 2-[3-(4-Chloro-3-fluorophenyl)-1-ethyl-1H-1,2,4-triazol-5-yl]-N-[(1H-indazol-7-yl)methyl]acetamide], 32.2%; with `CCn1nc(-c2ccc(Cl)c(OC(C)C)c2)nc1CC(=O)N[C@H]1CCc2ncccc21` [Example 42, 2-[3(4-Chloro-3-isopropyloxyphenyl)-1-ethyl-1H-1,2,4-triazol-5-yl]-N-[(5S)-5H,6H,7H-cyclopenta[b]pyridin-5-yl]acetamide], 40%.
On the same count and under the same terms, as for `CCn1nc(-c2ccc(Cl)c(OC(C)C)c2)nc1CC(=O)NCc1cc(C)nc(C)c1` [Example 35, 2-[3-(4-Chloro-3-isopropyloxyphenyl)-1-ethyl-1H-1,2,4-triazol-5-yl]-N-[(2,6-dimethylpyridin-4-yl)methyl]acetamide], the figure is 28.5%.
The same measure, in the same setting: as for `CCn1nc(-c2ccc(Cl)c(F)c2)nc1CC(=O)NC1(c2cc(C)nc(C)c2)CC1` [Example 86, 2-[3-(4-Chloro-3-fluorophenyl)-1-ethyl-1H-1,2,4-triazol-5-yl]-N-[1-(2,6-dimethylpyridin-4-yl)cyclopropyl]acetamide], the figure is 37.3%; as for `CCn1nc(-c2ccc(Cl)c(F)c2)nc1CC(=O)NC1Cc2ccccc2C1` [Example 66, 2-[3-(4-Chloro-3-fluorophenyl)-1-ethyl-1H-1,2,4-triazol-5-yl]-N-(2,3-dihydro-1H-inden-2-yl)acetamide], 92.1%.
Take `CCn1nc(-c2ccc(Cl)c(F)c2)nc1CC(=O)N[C@H]1C[C@H](O)c2ccccc21` [Example 68, 2-[3-(4-Chloro-3-fluorophenyl)-1-ethyl-1H-1,2,4-triazol-5-yl]-N-[(1S,3S)-3-hydroxy-2,3-dihydro-1H-inden-1-yl]acetamide]: the activation at 30 µM came out at 51.3%.
On the same count and under the same terms, as for `CCn1nc(-c2ccc(Cl)c(OC(C)C)c2)nc1CC(=O)NCc1cccc(C#N)c1` [Example 37, 2-[3-(4-Chloro-3-isopropyloxyphenyl)-1-ethyl-1H-1,2,4-triazol-5-yl]-N-[(3-cyanophenyl)methyl]acetamide], the figure is 40.2%.
Turning to `CCn1nc(-c2ccc(Cl)c(F)c2)nc1CC(=O)NCc1cc(Cl)cc(Cl)c1` [Example 5, 2-[3-(4-Chloro-3-fluorophenyl)-1-ethyl-1H-1,2,4-triazol-5-yl]-N-(3,5-dichlorobenzyl)acetamide], the activation at 30 µM was determined as 56.1%. Further, the “activation of PDE4 long form PDE4D5 (FIG. 1)” value (dose response, FIG. 1) is on record as “dose-dependent activation”.
The molecule `CCn1nc(-c2ccc(Cl)c(F)c2)nc1C(C)C(=O)NCc1cccc(F)c1` (centres unmarked) [Example 24, 2-[3-(4-Chloro-3-fluorophenyl)-1-ethyl-1H-1,2,4-triazol-5-yl]-N-[(3-fluorophenyl)methyl]propanamide] showed an activation at 30 µM of 72.2%.
The same measure, in the same setting: with `CCn1nc(-c2ccc(Cl)c(F)c2)nc1CC(=O)NCc1cc(C)cc(Cl)c1` [Example 10, 2-[3-(4-Chloro-3-fluorophenyl)-1-ethyl-1H-1,2,4-triazol-5-yl]-N-[(3-chloro-5-methylphenyl)methyl]acetamide] the figure was 136%; with `CC(C)Oc1cc(-c2nc(CC(=O)NCc3cccc(F)c3)n(C)n2)ccc1Cl` [Example 46, 2-[3-(4-Chloro-3-isopropyloxyphenyl)-1-methyl-1H-1,2,4-triazol-5-yl]-N-[(3-fluorophenyl)methyl]acetamide], 26.2%; with `CCOc1cc(-c2nc(CC(=O)NCc3cc(Cl)cc(Cl)c3)n(CC)n2)ccc1Cl` [Example 32, 2-[3-(4-Chloro-3-ethoxyphenyl)-1-ethyl-1H-1,2,4-triazol-5-yl]-N-[(3,5-dichlorophenyl)methyl]acetamide], 42.8%.
As to `CCn1nc(-c2ccc(Cl)c(F)c2)nc1CC(=O)NCc1cc(C)cc(F)c1` [Example 11, 2-[3-(4-Chloro-3-fluorophenyl)-1-ethyl-1H-1,2,4-triazol-5-yl]-N-[(3-fluoro-5-methylphenyl)methyl]acetamide], the activation at 30 µM worked out at 52.8%.
Same read-out and setting: as for `CCn1nc(-c2ccc(C#N)cc2)nc1CC(=O)NCc1cc(Cl)cc(Cl)c1` [Example 30, 2-[3-(4-Cyanophenyl)-1-ethyl-1H-1,2,4-triazol-5-yl]-N-[(3,5-dichlorophenyl)methyl]acetamide], the figure is 45.9%.
For `CCn1nc(-c2ccc(Cl)c(F)c2)nc1CC(=O)NCc1cc(OC)cc(OC)c1` [Example 15, 2-[3-(4-Chloro-3-fluorophenyl)-1-ethyl-1H-1,2,4-triazol-5-yl]-N-[(3,5-dimethoxyphenyl)methyl]acetamide], the activation at 30 µM amounted to 61.5%.
For the molecule `O=C(Cc1nc(-c2ccc(Cl)c(F)c2)nn1CCO)NCc1cc(Cl)cc(Cl)c1` [Example 23, 2-[3-(4-Chloro-3-fluorophenyl)-1-(2-hydroxyethyl)-1H-1,2,4-triazol-5-yl]-N-[(3,5-dichlorophenyl)methyl]acetamide], the activation at 30 µM came to 53.8%.
As to `CCOc1cccc(CNC(=O)Cc2nc(-c3ccc(Cl)c(F)c3)nn2CC)c1` [Example 14, 2-[3-(4-Chloro-3-fluorophenyl)-1-ethyl-1H-1,2,4-triazol-5-yl]-N-[(3-ethoxyphenyl)methyl]acetamide], the activation at 30 µM came out at 142%.
